Entries after “also recorded” stand apart in the source; their conditions may differ.
Tests used:
[1] = test system: children with autistic behavior; assay: Evoked potential studies and SPECT imaging of the brain before and after secretin (Case 1); assay type: in vivo, human
Excerpt: Case 1. […], was the product of a full-term uncomplicated pregnancy. Development of language and social behavior proceeded normally until about 15 months of age. At that time they lost their expressive vocabulary and their social behavior deteriorated. They were clinically diagnosed with autism by a pediatric neurologist. A multidisciplinary evaluation changed the diagnosis to PDD not otherwise specified. […] Because of their chronic diarrhea and elevated antigliadin IgG antibody titer, they underwent an upper gastrointestinal endoscopy. […] Three weeks after the procedure their parent reported significant changes in their gastrointestinal symptoms and behavior. […] More dramatic changes occurred in their autistic behavior (Table 4). […] Eight months after the procedure they have still retained their cognitive gains.

[2] = test system: children with autistic behavior; assay: Blood levels of gastrointestinal peptide hormones and neurotransmitters prior to and 10 minutes after secretin stimulation; assay type: in vivo, human
Description: After fasting from midnight, upper gastrointestinal endoscopies were carried out the next morning under general anesthesia. All gastric juice was aspirated before passing the endoscope into the duodenum. The pancreatico-biliary juice was collected after positioning the endoscope distal to the ampulla of Vater. An ERCP catheter was placed into the channel of endoscope and the fluid was collected by moving the tip into the outcoming fluid and suctioning it into a syringe. The pancreas was then stimulated with secretin 2 IU/kg BW (Ferring Laboratories, Inc. Suffern, NY, USA) given intravenously within a minute. Three additional specimens were collected after the secretin injection within a 10-minute period. Blood samples were collected prior to and 10 minutes after secretin stimulation. In a subgroup of children, the effect of duodenal acidification was determined by measurement of blood secretin levels before and 4–5 minutes after washing the second part of the duodenum with 0.05M hydrochloric acid for 5 minutes. At the end of the procedure, biopsies were obtained of the small intestine, esophagus and stomach.
Blood samples were analyzed for the levels of gastrointestinal peptide hormones (Secretin, CCK, VIP, Peptide Y) and neurotransmitters (Serotonin, Substance P). All the assays were performed in the Interscience Institute (Inglewood, Calif.) specialized in gastrointestinal hormone measurements.

[3] = test system: patients with intrahepatic cholestasis; conditions: double-blind placebo-controlled multicentric trial; cited from earlier work

secretin
repeat evoked potential studies ([1]; Case 1, eight months after secretin administration): only a minimal delay in responses
SPECT, cerebral perfusion / blood flow ([1]; Case 1, follow-up versus pre-secretin study): marked improvement in the cerebral blood flow; also recorded: less marked decrease in perfusion of right posterior parietal and right temporal lobes
Serotonin level after secretin injection ([2]; Group I (chronic loose stools/diarrhea)): >50% elevation
Serotonin level after secretin injection ([2]; Group II (no diarrhea)): <50% elevation
blood level of CCK ([2]; after secretin injection): no change at all
blood level of VIP ([2]; after secretin injection): no change at all
blood level of substance P ([2]; after secretin injection): no change at all
blood serotonin level ([2]; children with chronic diarrhea, ten minutes after secretin injection, fasting): significant elevation
blood level of Peptide Y ([2]; four children, before or after secretin administration): no abnormality
reduction of serum bilirubin levels, secretin versus placebo [3]: no statistically significant differences

Reference: US7091182B2, “Method for assisting in differential diagnosis and treatment of autistic syndromes” (Repligen Corporation, priority 1997, dated 2006)
